Data published in ChEMBL document CHEMBL1201862, “PubChem BioAssay data set” (2004).
Calls of active or inactive are those of the source.

How the values were obtained:
[1] = target: T1, Corticotropin-releasing factor receptor 2/Corticotropin-releasing factor-binding protein (Homo sapiens, UniProt P24387+Q13324); experiment: Dose Response confirmation of uHTS hits for small molecule antagonists of the CRF-binding protein and CRF-R2 receptor complex.; assay type: functional; settings: read-out: IC50_Mean
T1 sequence (Q13324 whole entry): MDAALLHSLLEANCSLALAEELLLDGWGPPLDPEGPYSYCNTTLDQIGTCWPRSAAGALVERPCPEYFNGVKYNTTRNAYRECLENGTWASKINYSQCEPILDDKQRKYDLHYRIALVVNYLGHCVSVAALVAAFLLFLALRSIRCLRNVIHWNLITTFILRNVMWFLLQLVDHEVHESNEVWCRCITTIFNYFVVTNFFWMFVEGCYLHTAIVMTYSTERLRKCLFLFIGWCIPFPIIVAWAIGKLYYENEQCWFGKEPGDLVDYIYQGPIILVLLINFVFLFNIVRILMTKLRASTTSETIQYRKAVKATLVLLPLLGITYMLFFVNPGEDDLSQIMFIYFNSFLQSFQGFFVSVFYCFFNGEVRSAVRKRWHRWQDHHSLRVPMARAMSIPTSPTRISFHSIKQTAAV
T1 sequence (P24387 whole entry): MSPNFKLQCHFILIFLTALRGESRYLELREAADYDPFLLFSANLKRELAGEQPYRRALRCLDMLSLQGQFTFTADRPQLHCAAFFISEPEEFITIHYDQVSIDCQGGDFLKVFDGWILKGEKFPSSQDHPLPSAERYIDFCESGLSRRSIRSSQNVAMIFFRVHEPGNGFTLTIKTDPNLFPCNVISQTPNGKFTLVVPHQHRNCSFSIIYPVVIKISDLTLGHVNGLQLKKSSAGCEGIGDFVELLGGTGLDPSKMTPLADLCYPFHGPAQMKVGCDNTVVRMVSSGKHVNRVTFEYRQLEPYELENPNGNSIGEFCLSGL

[2] = target: T1, Corticotropin-releasing factor receptor 2/Corticotropin-releasing factor-binding protein; experiment: activators of CRF receptor 2 with binding protein – uHTS hits, confirmation (AID 602473); assay type: functional; settings: read-out: EC50_Mean
Cytochrome P450 2C9 = Cytochrome P450 2C9 (Homo sapiens, UniProt P11712)
Streptococcus = experiment: GAS UMAA2166 growth inhibition – luminescence, BacTiterGlo, counter-screen for streptokinase expression inhibitor project, dose response (AID 1915); assay type: functional, organism-based;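 note: potency for reduction of bacterial viability or growth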
Streptokinase A = target: T2, Streptokinase A (Streptococcus pyogenes serotype M1, UniProt P10520); experiment: viability-normalized secreted streptokinase activity reduction – plasminogen activation absorbance, OD405, dose response (AID 1914); assay type: functional, Streptococcus pyogenes M1 GAS;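 note: secreted streptokinase activity via plasminogen activation per viability signal from cell pellet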
T2 sequence (P10520 whole entry): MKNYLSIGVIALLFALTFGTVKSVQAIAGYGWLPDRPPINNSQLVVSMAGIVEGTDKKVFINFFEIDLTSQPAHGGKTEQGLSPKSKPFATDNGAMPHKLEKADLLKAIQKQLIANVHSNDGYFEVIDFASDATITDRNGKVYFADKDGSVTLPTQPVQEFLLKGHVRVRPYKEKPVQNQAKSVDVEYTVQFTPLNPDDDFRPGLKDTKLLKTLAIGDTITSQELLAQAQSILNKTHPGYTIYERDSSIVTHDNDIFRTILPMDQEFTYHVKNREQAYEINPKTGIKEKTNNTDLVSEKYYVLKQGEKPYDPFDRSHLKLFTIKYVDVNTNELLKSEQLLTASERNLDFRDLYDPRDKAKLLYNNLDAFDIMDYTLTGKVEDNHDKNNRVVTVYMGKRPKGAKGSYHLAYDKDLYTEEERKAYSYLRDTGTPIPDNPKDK

[3] = test system: Streptococcus sp. 'group A'; experiment: Streptococcus pyogenes SK(-)GAS viability under kanamycin – luminescence, BacTiterGlo, confirmation, counter-screen for streptokinase expression inhibitor project, dose response (AID 1900); assay type: functional, organism-based
[4] = Luminescence Cell-Based Dose Retest to Confirm Inhibitors of Cancer Stem Cells. [Related pubchem assays (depositor defined):AID2717, AID2721]; assay type: functional; settings: Homo sapiens
[5] = target: T3, Zinc finger protein mex-5 (Caenorhabditis elegans, UniProt Q9XUB2); experiment: potency of MEX-5 RNA-binding blockers – biochemical, C. elegans, fluorescence polarization, dose response (AID 1960)
T3 sequence (Q9XUB2 whole entry): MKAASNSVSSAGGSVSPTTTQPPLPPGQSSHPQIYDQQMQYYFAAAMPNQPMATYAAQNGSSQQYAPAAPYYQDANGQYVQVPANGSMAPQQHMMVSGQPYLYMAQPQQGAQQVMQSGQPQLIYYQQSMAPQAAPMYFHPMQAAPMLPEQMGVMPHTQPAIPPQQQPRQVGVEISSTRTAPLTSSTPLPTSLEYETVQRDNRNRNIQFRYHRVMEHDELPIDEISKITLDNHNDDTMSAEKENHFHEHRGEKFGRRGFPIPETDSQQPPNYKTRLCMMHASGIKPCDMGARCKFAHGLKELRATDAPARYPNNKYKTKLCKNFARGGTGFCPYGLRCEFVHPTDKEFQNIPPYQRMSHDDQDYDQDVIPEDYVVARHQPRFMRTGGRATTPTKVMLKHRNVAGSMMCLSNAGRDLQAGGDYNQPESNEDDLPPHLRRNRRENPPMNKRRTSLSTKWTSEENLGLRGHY

[6] = target: T4, RNA-binding protein pos-1 (Caenorhabditis elegans, UniProt G5EF15); experiment: disruptors of C. elegans POS-1 RNA interaction – biochemical, fluorescence polarization, dose response (AID 1964);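 note: purified POS-1 fused to maltose binding protein made in E. coli; potency of compounds blocking POS-1 binding to fluorescent RNA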
T4 sequence (G5EF15 whole entry): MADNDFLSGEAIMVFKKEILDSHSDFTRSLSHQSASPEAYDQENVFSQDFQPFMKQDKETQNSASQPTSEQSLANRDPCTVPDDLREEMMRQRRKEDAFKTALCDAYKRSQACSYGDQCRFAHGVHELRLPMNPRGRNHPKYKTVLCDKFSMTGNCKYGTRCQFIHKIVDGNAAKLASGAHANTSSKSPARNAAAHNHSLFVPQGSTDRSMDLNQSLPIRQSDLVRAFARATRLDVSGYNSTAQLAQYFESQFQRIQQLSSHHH

Cytochrome P450 2C19 = Cytochrome P450 2C19 (Homo sapiens, UniProt P33261); experiment: Cytochrome panel assay with activity outcomes. Panel member name: p450-cyp2c19 Compounds with AC50 equal or less than 10 uM are considered active; assay type: functional
[7] = loss of viability in HepG2 cells – cell-based, CellTiter-Glo, cherry-picked, cytotoxicity control for Shn3 inhibitor project, dose response (AID 624134); assay type: functional
[8] = reduction of Shn3 3'UTR-driven luciferase in osteoblasts – cell-based, Clone20 osteoblasts, firefly luciferase, cherry-picked, dose response (AID 624132); assay type: functional;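 note: firefly luciferase luminescence from reporter carrying the Shn3 3'UTR in osteoblasts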

Sequence of Cytochrome P450 2C9 (P11712 whole entry): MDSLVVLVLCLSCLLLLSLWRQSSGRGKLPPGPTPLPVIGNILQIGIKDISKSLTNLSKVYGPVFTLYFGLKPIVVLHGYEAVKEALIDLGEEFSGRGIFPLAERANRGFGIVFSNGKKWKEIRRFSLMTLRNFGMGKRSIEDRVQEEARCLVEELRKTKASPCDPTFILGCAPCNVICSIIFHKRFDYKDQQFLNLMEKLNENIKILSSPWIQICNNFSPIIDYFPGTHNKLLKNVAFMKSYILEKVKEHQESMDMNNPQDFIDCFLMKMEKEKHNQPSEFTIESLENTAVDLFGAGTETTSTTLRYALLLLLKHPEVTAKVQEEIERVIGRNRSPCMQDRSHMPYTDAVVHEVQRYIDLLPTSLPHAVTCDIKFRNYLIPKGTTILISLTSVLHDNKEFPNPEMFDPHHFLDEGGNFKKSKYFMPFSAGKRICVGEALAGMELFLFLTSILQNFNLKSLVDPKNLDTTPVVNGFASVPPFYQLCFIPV
Sequence of Cytochrome P450 2C19 (P33261 whole entry): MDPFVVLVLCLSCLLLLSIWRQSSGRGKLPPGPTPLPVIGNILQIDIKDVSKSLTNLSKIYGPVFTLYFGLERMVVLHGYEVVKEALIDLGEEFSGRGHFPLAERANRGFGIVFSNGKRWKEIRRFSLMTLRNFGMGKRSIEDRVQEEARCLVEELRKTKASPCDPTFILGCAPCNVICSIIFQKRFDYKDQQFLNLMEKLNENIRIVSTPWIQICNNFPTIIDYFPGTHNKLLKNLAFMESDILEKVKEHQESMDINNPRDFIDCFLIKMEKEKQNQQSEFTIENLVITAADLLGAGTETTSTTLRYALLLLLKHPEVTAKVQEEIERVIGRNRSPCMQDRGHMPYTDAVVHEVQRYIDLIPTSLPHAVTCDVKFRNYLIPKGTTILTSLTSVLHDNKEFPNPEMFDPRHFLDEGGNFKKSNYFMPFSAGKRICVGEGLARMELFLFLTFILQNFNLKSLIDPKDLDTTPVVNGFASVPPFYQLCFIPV

For `COCc1ccc(CN2CCC(C(=O)Nc3cccc(-c4cscn4)c3)CC2)o1`, the IC50 [1] was > 47.1 µM (inactive) and the EC50 [2] was > 53 µM (inactive).

In the case of `O=P(/C(=N/O)N1CCOCC1)(N1CCOCC1)N1CCOCC1`, the IC50 [1] is reported as > 47.1 µM (inactive) and the EC50 [2] is reported as > 53 µM (inactive).

In the case of `Cc1cc(NC(=O)c2ccc(S(=O)(=O)N(C)C)cc2)n(-c2ccccn2)n1`, the AC50 (Cytochrome P450 2C9) is reported as “inconclusive”.

With `Cc1cc(C)cc(C(=O)Nc2cccnc2Cl)c1` the IC50 [1] was > 47.1 µM (inactive) and the EC50 [2] was > 53 µM (inactive).

For `O=S(=O)(Nc1ccc(-n2cccc2)cc1)c1ccc(Cl)c(Cl)c1`, the EC50 (Streptococcus) was 7.58 µM (active), the EC50 (Streptokinase A) was 11.3 µM (inconclusive) and the EC50 [3] was 7.42 µM (active). For the same molecule, the AC50 [4] was 4.84 µM (active).

With `CC(C)(c1ccccc1)c1ccc(OCCN2CCCC2)cc1` the AC50 [4] was 0.824 µM (active).

For `N#Cc1cc(N)ccc1Sc1ccc(Cl)cc1`, the AC50 (Cytochrome P450 2C9) was “inconclusive”.

With `Cc1nn(-c2ccccc2)c(C)c1/C=N/NC(=O)c1cc(-c2ccc(Br)s2)[nH]n1` the EC50 (Streptococcus) was 11.8 µM (active), the EC50 (Streptokinase A) was > 150 µM (not active) and the EC50 [3] was 7.15 µM (active). For the same molecule, the AC50 [4] was 0.434 µM (active).

With `COc1ccc(CCN2C(=O)NC(=O)/C(=C\NNC(=O)c3ccncc3)C2=O)cc1OC` the EC50 [5] was 43.7 µM (active).

For `COc1ccc(C)cc1NC(=O)N1CCCc2ccccc21`, the IC50 [1] was > 47.1 µM (inactive) and the EC50 [2] was > 53 µM (inactive).

With `CCCn1nc(C(=O)Nc2ccc(S(=O)(=O)Nc3nccs3)cc2)c2ccccc2c1=O` the EC50 [5] was 27.8 µM (active) and the EC50 [6] was > 150 µM (not active).

For `O=C(Nc1ccc(N2CCN(c3ccccc3)CC2)c(F)c1)C1CC1`, the IC50 [1] was > 47.1 µM (inactive) and the EC50 [2] was > 53 µM (inactive).

For `Cc1ccccc1C(=O)NNC(=O)c1ccc(F)cc1`, the AC50 (Cytochrome P450 2C9) was “inconclusive”.

For `Cn1cc(C(=O)C(=O)N[C@H]2CN3CCC2CC3)c2ccccc21`, the AC50 (Cytochrome P450 2C9) was “inconclusive”.

With `O=[N+]([O-])c1cc(/C=N\O)ccc1Oc1ccc(F)cc1` the IC50 [1] was 24.9 µM (active) and the EC50 [2] was > 53 µM (inactive).

In the case of `Cc1c(C)c2c(c(C)c1O)CC[C@@](C)(CCC[C@@H](C)CCC[C@@H](C)CCCC(C)C)O2`, the AC50 (Cytochrome P450 2C19) is reported as “inconclusive” and the AC50 (Cytochrome P450 2C9) is reported as “inconclusive”.

For `COc1cc(Nc2nc(-c3ccccc3)c3cc(C)ccc3n2)cc(OC)c1OC`, the AC50 [7] was 60.2 µM (active), the AC50 [8] was 6.55 µM (active) and the AC50 [4] was 5.05 µM (active).
